Key:
ME = experiment: In vitro cellular proliferation assay ([3H]-thymidine incorporation); type: cell-based, human; details: ME (Rhabdomyosarcoma)
Method: (§1) All pediatric sarcoma and neuroblastoma cell lines were obtained from Dr. Lee Helman at NIH. All cell lines were grown in RPMI medium supplemented with Glutamax (Gibco/Invitrogen #61870-036), 10% inactivated fetal bovine serum (Gibco/Invitrogen #16140-071), 10 mM Hepes, penicillin and streptomycin.
(§2) Cells were plated at an optimized density for each cell line per well in 96-well microtiter Falcon plates, incubated overnight, and then exposed to a serial dilution of drug. After 72 hours incubation with drug at 37° C., cells were pulsed with 4 μCi/ml [6-3H] thymidine (Amersham Pharmacia Biotech, UK) for 3 hours, trypsinized, harvested onto UniFilter-96, GF/B plates (PerkinElmer, Boston, Mass.) and scintillation was measured on a TopCount NXT (Packard, Conn.). Results were expressed as an IC50, which is the drug concentration required to inhibit cell proliferation by 50% to that of untreated control cells. The mean IC50 and standard deviation (SD) from multiple tests for each cell line were calculated.

HT1080/S = experiment: as above; type: cell-based, human; details: HT1080/S (Fibrosarcoma)
Method: as §1, §2

IMR-32 = experiment: as above; type: cell-based, human; details: IMR-32 (Neuroblastoma)
Method: as §1, §2

SK-NAS = experiment: as above; type: cell-based, human
Method: as §1, §2

Rh1 = experiment: as above; type: cell-based, human; details: Rh1 (Rhabdomyosarcoma)
Method: as §1, §2

SK-LMS-1 = experiment: as above; type: cell-based, human; details: SK-LMS-1 (Leiomyosarcoma)
Method: as §1, §2

SW-684 = experiment: as above; type: cell-based, human; details: SW-684 (Fibrosarcoma)
Method: as §1, §2

VW = experiment: as above; type: cell-based, human; details: VW (Ewing)
Method: as §1, §2

TC32 = experiment: as above; type: cell-based, human; details: TC32 (Ewing)
Method: as §1, §2

SA-4 = experiment: as above; type: cell-based, human; details: SA-4 (Liposarcoma)
Method: as §1, §2

Rh36 = experiment: as above; type: cell-based, human; details: Rh36 (Rhabdomyosarcoma)
Method: as §1, §2

CTR = experiment: as above; type: cell-based, human
Method: as §1, §2

Rh4 = experiment: as above; type: cell-based, human; details: Rh4 (Rhabdomyosarcoma)
Method: as §1, §2

HTB-92 = experiment: as above; type: cell-based, human; details: HTB-92 (Liposarcoma)
Method: as §1, §2

Rh41 = experiment: as above; type: cell-based, human; details: Rh41 (Rhabdomyosarcoma)
Method: as §1, §2

H211 = experiment: as above; type: cell-based, human; details: H211 (Melignant Pleural Mesothelioma)
Method: as §1, §2

TC71 = experiment: as above; type: cell-based, human; details: TC71 (Ewing)
Method: as §1, §2

LG = experiment: as above; type: cell-based, human; details: LG (Ewing)
Method: as §1, §2

KAG = experiment: as above; type: cell-based, human; details: KAG (Ewing)
Method: as §1, §2

RDES = experiment: as above; type: cell-based, human; details: RDES (Ewing)
Method: as §1, §2

JD = experiment: as above; type: cell-based, human
Method: as §1, §2

5838 = experiment: as above; type: cell-based, human; details: 5838 (Ewing)
Method: as §1, §2

H513 = experiment: as above; type: cell-based, human; details: H513 (Melignant Pleural Mesothelioma)
Method: as §1, §2

RD1-Resist cells = experiment: In vitro cellular proliferation assay, compound 1 acquired resistant RD1; type: cell-based; details: Homo sapiens
Method: as §1, §2
(§3) Acquired resistance to anti-cancer agents is a major clinical problem. […] In order to identify markers that may contribute to acquired resistance to the IGF1R inhibitor, global gene expression profiles for both parental RD1 and resistant RD1 were analyzed using Affymetrix gene chip. […]

RD-1 cells = experiment: In vitro cellular proliferation assay, parental sensitive RD-1; type: cell-based; details: Homo sapiens, RD1; sensitive parental RD-1 (RMS) cells
Method: as §1, §2, §3

[1] = Homo sapiens, 72 hours with drug, read-out: IC50

With `Cc1cc(N2CCOCC2)cc2[nH]c(-c3c(NC[C@@H](O)c4cccc(Cl)c4)cc[nH]c3=O)nc12` [Compound 1, (S)-4-(2-(3-chlorophenyl)-2-hydroxyethylamino)-3-(4-methyl-6-morpholino-1H-benzo[d]imidazol-2-yl)-pyridin-2(1-H)-one] the IC50 (ME; [1]) was 163 nM, the “Sensitivity Classification” value (ME) was “S (“S” means sensitive)” and the “Sensitivity Classification” value (HT1080/S) was “R (“R” means resistant to the corresponding compounds.)”. The IC50 (HT1080/S; Homo sapiens, HT-1080, 72 hours with drug, read-out: IC50) was 1410 nM, the IC50 (IMR-32; [1]) was 277 nM and the “Sensitivity Classification” value (IMR-32) was “S (“S” means sensitive)”. For the same compound, the IC50 (SK-NAS; Homo sapiens, SK-N-AS, SK-NAS (Neuroblastoma), 72 hours with drug, read-out: IC50) was 192 nM, the “sensitivity/resistance classification in words” value (SK-NAS; SK-NAS) was “resistant” and the “Sensitivity Classification” value (SK-NAS; SK-NAS (Neuroblastoma)) was “S (“S” means sensitive)”. For the same compound, the IC50 (Rh1; Homo sapiens, RH-1, 72 hours with drug, read-out: IC50) was 135 nM, the “Sensitivity Classification” value (Rh1) was “S (“S” means sensitive)” and the IC50 (SK-LMS-1; [1]) was 500 nM. For the same compound, the “Sensitivity Classification” value (SK-LMS-1) was “R (“R” means resistant to the corresponding compounds.)”, the IC50 (SW-684; Homo sapiens, SW684, 72 hours with drug, read-out: IC50) was 5000 nM and the “Sensitivity Classification” value (SW-684) was “R (“R” means resistant to the corresponding compounds.)”. For the same compound, the IC50 (VW; [1]) was 101 nM, the “Sensitivity Classification” value (VW) was “S (“S” means sensitive)” and the IC50 (TC32; Homo sapiens, TC-32, 72 hours with drug, read-out: IC50) was 55 nM. The “Sensitivity Classification” value (TC32) was “S (“S” means sensitive)”, the IC50 (SA-4; [1]) was 779 nM and the “Sensitivity Classification” value (SA-4) was “R (“R” means resistant to the corresponding compounds.)”. For the same compound, the IC50 (Rh36; [1]) was 1600 nM, the “Sensitivity Classification” value (Rh36) was “R (“R” means resistant to the corresponding compounds.)” and the “sensitivity/resistance classification in words” value (CTR; CTR) was “resistant”. For the same compound, the “Sensitivity Classification” value (CTR; CTR (Rhabdomyosarcoma)) was “R (“R” means resistant to the corresponding compounds.)”, the IC50 (CTR; Homo sapiens, CTR (Rhabdomyosarcoma), 72 hours with drug, read-out: IC50) was 370 nM and the IC50 (Rh4; [1]) was 27 nM. For the same compound, the “Sensitivity Classification” value (Rh4) was “S (“S” means sensitive)”, the “Sensitivity Classification” value (HTB-92) was “R (“R” means resistant to the corresponding compounds.)” and the IC50 (HTB-92; [1]) was 584 nM. The IC50 (Rh41; [1]) was 69 nM, the “Sensitivity Classification” value (Rh41) was “S (“S” means sensitive)” and the “Sensitivity Classification” value (H211) was “R (“R” means resistant to the corresponding compounds.)”. The IC50 (H211; Homo sapiens, NCI-H211, 72 hours with drug, read-out: IC50) was 418 nM, the IC50 (TC71; Homo sapiens, TC-71, 72 hours with drug, read-out: IC50) was 119 nM and the “Sensitivity Classification” value (TC71) was “S (“S” means sensitive)”. For the same compound, the IC50 (LG; [1]) was 63 nM, the “Sensitivity Classification” value (LG) was “S (“S” means sensitive)” and the IC50 (KAG; [1]) was 2110 nM. For the same compound, the “Sensitivity Classification” value (KAG) was “R (“R” means resistant to the corresponding compounds.)”, the IC50 (RDES; Homo sapiens, RD-ES, 72 hours with drug, read-out: IC50) was 123 nM and the “Sensitivity Classification” value (RDES) was “S (“S” means sensitive)”. For the same compound, the IC50 (JD; Homo sapiens, JD (Ewing), 72 hours with drug, read-out: IC50) was 232 nM, the “sensitivity/resistance classification in words” value (JD; JD) was “resistant” and the “Sensitivity Classification” value (JD; JD (Ewing)) was “S (“S” means sensitive)”. For the same compound, the “Sensitivity Classification” value 5838 was “S (“S” means sensitive)”, the IC50 5838; [1] was 172 nM and the “Sensitivity Classification” value (H513) was “R (“R” means resistant to the corresponding compounds.)”. It also gave an IC50 (H513; [1]) of 3120 nM, an IC50 (RD1-Resist cells) of 2000 nM and an IC50 (RD1-Resist cells; RD1, acquired resistant RD-1 cells) of 2000 nM. For the same compound, the IC50 (RD-1 cells) was 238 nM.

— patent publication US8492328B2, “Biomarkers and methods for determining sensitivity to insulin growth factor-1 receptor modulators” (Bristol-Myers Squibb Company, priority 2007, dated 2013)
